Test system: Mycoplasma hyorhinis (ATCC 17981) inoculated on HepG2 cell line
Test: Preventive activity against mycoplasma contamination during cell culturing
Type: cell-based
Conditions: 20 μg/ml AM3 and 20 μM surfactin, 1×10^3 cfu Mycoplasma hyorhinis
Experimental: A cell line HepG2, which was not contaminated with mycoplasma, was inoculated at a concentration of 1×10^5 cells on DMEM (GIBCO BRL, Cat. No. 12800-058) including 10% or less serum (GIBCO BRL, Cat. No. 10082-147). The cell line was treated with 20 μg/ml of amphidinol 3 (AM3) and 20 μM of surfactin, followed by inoculation of 1×10^3 cfu (colony formin unit) of Mycoplasma hyorhinis (ATCC 17981). The cell line was cultured in an incubator at a temperature of 37° C. and in a condition of 5% CO2 for 3 days. Sub-culturing was performed twice per week. The cells were harvested every week and then PCR was performed thereon with a mycoplasma diagnosis kit (Promokine, Germany; Cellsafe Co., Ltd., Korea) according to the enclosed protocol. The resulting PCR products were electrophoresed on a 1% agarose gel to measure the mycoplasma contamination.

Compound: C=C/C=C/CC/C=C/C=C/C=C/CC/C=C/C(O)C(O)C1OC(C(O)C(O)C(=C)CCC(O)C2CC(O)C(O)C(C(O)C(O)/C=C(\C)CCC(O)CC(O)C(O)C(C)CC(O)C(O)CCCCCC(O)CCCC(O)/C=C/CC(O)/C=C/CC(O)CO)O2)CC(O)C1O (stereo not shown) [AM3, amphidinol 3]
- mycoplasma contamination after artificial inoculation: stably cultured without mycoplasma contamination

Source: patent US8815565B2, “Method for culturing mycoplasma contamination-free cells and method for removing mycoplasma contamination of cells” (Cellsafe Co., Ltd., priority 2010, dated 2014)
